Data: PubChem BioAssay AID2060496 (Molecular Pharmacology Branch, DTP, NCI, 2025)

System: 276233-004-R-J1-PDC complex spheroid viability
Assay: Anticancer human tumor 276233-004-R-J1-PDC patient-derived colon adenocarcinoma cell line growth inhibition [GQUAD]
Conditions: for IC50: curve of first compound; for viability, T/C: stronger effect = lower value
Procedure, shortened: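 Viability of tumor cells grown as complex spheroids with endothelial and stromal cells, exposed to drug combinations. Top concentration at or near clinical Cmax (else 10 microM), diluted in half-log increments.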

[1] = second compound 0.0316 µM, first compound 0.0316 µM
[2] = second compound 0.0316 µM, first compound 0.316 µM
[3] = second compound 0.1 µM, first compound 0.0316 µM
[4] = second compound 0.1 µM, first compound 0.316 µM
[5] = second compound 0.316 µM, first compound 0.0316 µM
[6] = second compound 0.316 µM, first compound 0.316 µM
[7] = second compound 1 µM, first compound 0.0316 µM
[8] = second compound 1 µM, first compound 0.316 µM
[9] = second compound 3.16 µM, first compound 0.0316 µM
[10] = second compound 3.16 µM, first compound 0.316 µM
[11] = second compound 10 µM, first compound 0.0316 µM
[12] = second compound 10 µM, first compound 0.316 µM
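Also: spheroids exposed to drugs for seven days.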
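For viability, T/C in this document: 100% = DMSO vehicle control viability.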

For `CCc1c2c(nc3ccc(O)cc13)-c1cc3c(c(=O)n1C2)COC(=O)[C@]3(O)CC` + Cc1[nH]c2ccc(F)cc2c1-c1nc2c3cccnc3c3ncccc3c2[nH]1, the IC50 (second compound 0.0316 µM) was > 316 nM, the IC50 (second compound 0.1 µM) was > 316 nM and the IC50 (second compound 0.316 µM) was > 316 nM. The IC50 (second compound 1 µM) was > 316 nM, the IC50 (second compound 3.16 µM) was > 316 nM and the IC50 (second compound 10 µM) was < 0.999 nM. The viability, T/C (second compound 0.0316 µM, first compound 0.000999 µM) was 104%, the viability, T/C (second compound 0.0316 µM, first compound 0.00316 µM) was 72.7% and the viability, T/C (second compound 0.0316 µM, first compound 0.00999 µM) was 85.2%. The viability, T/C [1] was 103%, the viability, T/C (second compound 0.0316 µM, first compound 0.0999 µM) was 106% and the viability, T/C [2] was 94.2%. For the same compound, the viability, T/C (second compound 0.1 µM, first compound 0.000999 µM) was 76.3%, the viability, T/C (second compound 0.1 µM, first compound 0.00316 µM) was 89.8% and the viability, T/C (second compound 0.1 µM, first compound 0.00999 µM) was 79.5%. The viability, T/C [3] was 97.5%, the viability, T/C (second compound 0.1 µM, first compound 0.0999 µM) was 111% and the viability, T/C [4] was 90.4%. The viability, T/C (second compound 0.316 µM, first compound 0.000999 µM) was 78.8%, the viability, T/C (second compound 0.316 µM, first compound 0.00316 µM) was 82.6% and the viability, T/C (second compound 0.316 µM, first compound 0.00999 µM) was 78.1%. It also gave a viability, T/C [5] of 94.1%, a viability, T/C (second compound 0.316 µM, first compound 0.0999 µM) of 97.2% and a viability, T/C [6] of 88.1%. The viability, T/C (second compound 1 µM, first compound 0.000999 µM) was 62.8%, the viability, T/C (second compound 1 µM, first compound 0.00316 µM) was 82.7% and the viability, T/C (second compound 1 µM, first compound 0.00999 µM) was 80.5%. For the same compound, the viability, T/C [7] was 81.6%, the viability, T/C (second compound 1 µM, first compound 0.0999 µM) was 90.1% and the viability, T/C [8] was 73.5%. It also gave a viability, T/C (second compound 3.16 µM, first compound 0.000999 µM) of 58.7%, a viability, T/C (second compound 3.16 µM, first compound 0.00316 µM) of 57.3% and a viability, T/C (second compound 3.16 µM, first compound 0.00999 µM) of 54%. The viability, T/C [9] was 62.3%, the viability, T/C (second compound 3.16 µM, first compound 0.0999 µM) was 67.3% and the viability, T/C [10] was 67.3%. It also gave a viability, T/C (second compound 10 µM, first compound 0.000999 µM) of 39.8%, a viability, T/C (second compound 10 µM, first compound 0.00316 µM) of 41.1% and a viability, T/C (second compound 10 µM, first compound 0.00999 µM) of 56.8%. The viability, T/C [11] was 62.2%, the viability, T/C (second compound 10 µM, first compound 0.0999 µM) was 55.4% and the viability, T/C [12] was 54.8%.
For `O=C(NO)c1cnc(N2CCN(S(=O)(=O)c3ccc4ccccc4c3)CC2)nc1` + Cc1[nH]c2ccc(F)cc2c1-c1nc2c3cccnc3c3ncccc3c2[nH]1, the IC50 (second compound 0.0316 µM) was 427 nM, the IC50 (second compound 0.1 µM) was 372 nM and the IC50 (second compound 0.316 µM) was 360 nM. For the same compound, the IC50 (second compound 1 µM) was 102 nM, the IC50 (second compound 3.16 µM) was < 31.6 nM and the IC50 (second compound 10 µM) was < 31.6 nM. The viability, T/C [1] was 87.1%, the viability, T/C (second compound 0.0316 µM, first compound 0.1 µM) was 86% and the viability, T/C [2] was 66.7%. The viability, T/C (second compound 0.0316 µM, first compound 1 µM) was 2.71%, the viability, T/C (second compound 0.0316 µM, first compound 3.16 µM) was 0.44% and the viability, T/C (second compound 0.0316 µM, first compound 10 µM) was 0.48%. It also gave a viability, T/C [3] of 83.2%, a viability, T/C (second compound 0.1 µM, first compound 0.1 µM) of 108% and a viability, T/C [4] of 57.9%. The viability, T/C (second compound 0.1 µM, first compound 1 µM) was 5.03%, the viability, T/C (second compound 0.1 µM, first compound 3.16 µM) was 0.38% and the viability, T/C (second compound 0.1 µM, first compound 10 µM) was 0.83%. It also gave a viability, T/C [5] of 50.4%, a viability, T/C (second compound 0.316 µM, first compound 0.1 µM) of 71.8% and a viability, T/C [6] of 56.1%. For the same compound, the viability, T/C (second compound 0.316 µM, first compound 1 µM) was 2.35%, the viability, T/C (second compound 0.316 µM, first compound 3.16 µM) was 2.07% and the viability, T/C (second compound 0.316 µM, first compound 10 µM) was 0.4%. The viability, T/C [7] was 58.8%, the viability, T/C (second compound 1 µM, first compound 0.1 µM) was 41.5% and the viability, T/C [8] was 42.8%. For the same compound, the viability, T/C (second compound 1 µM, first compound 1 µM) was 3.96%, the viability, T/C (second compound 1 µM, first compound 3.16 µM) was 1.07% and the viability, T/C (second compound 1 µM, first compound 10 µM) was 0.62%. The viability, T/C [9] was 17.4%, the viability, T/C (second compound 3.16 µM, first compound 0.1 µM) was 17% and the viability, T/C [10] was 14.8%. The viability, T/C (second compound 3.16 µM, first compound 1 µM) was 1.23%, the viability, T/C (second compound 3.16 µM, first compound 3.16 µM) was 1.33% and the viability, T/C (second compound 3.16 µM, first compound 10 µM) was 0.42%. It also gave a viability, T/C [11] of 26.4%, a viability, T/C (second compound 10 µM, first compound 0.1 µM) of 26.6% and a viability, T/C [12] of 22.1%. For the same compound, the viability, T/C (second compound 10 µM, first compound 1 µM) was 3.12%, the viability, T/C (second compound 10 µM, first compound 3.16 µM) was 1.25% and the viability, T/C (second compound 10 µM, first compound 10 µM) was 0.61%.
